One block for each compound: values may come before it.
What was measured:
[1] = biological target: T1, tau fibrils (Homo sapiens, UniProt P10636); assay: [125I]SIL23 competitive binding assay, tau fibrils; details: [125I]SIL23 competition, 95% confidence intervals in parentheses
T1 construct: made in house; host or cells: BL21(DE3)RIL E. coli

[2] = biological target: T2, Aβ1-42 fibrils (Homo sapiens, UniProt P05067); assay: [125I]SIL23 competitive binding assay, Aβ1-42 fibrils; details: [125I]SIL23 competition, 95% confidence intervals in parentheses
T2 construct: Synthetic Aβ1-42 peptide (1 mg) (Bachem, Torrance, Calif.); purchased Bachem, Torrance, Calif; host or cells: synthetic peptide

[3] = MicroPET study in the brain of a nonhuman primate; assay type: in vivo, cynomolgus monkey; details: monkey 5.8 kg, 8.68 mCi/6 mL injected
Source text: The brain of a cynologmus monkey was scanned using a microPET scanner. The left panel is the MRI image. The middle panel is the co-registered the MRI and PET image. The right panel is the PET image. […] FIG. 74 presents a plot of the radiation in portions of the monkey brain as a function of time. […] It also has favorable clearance pharmacokinetics from the brain.

[4] = Ex vivo biodistribution in Sprague-Dawley rats; details: for brain uptake: male SD rats (n=4);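 for all read-outs here: four rats in each time-point group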
[5] = biological target: α-synuclein fibrils (Homo sapiens, UniProt P37840); assay: ThT fluorescence saturation binding to α-synuclein fibrils; parameters: made in house; host or cells: BL21(DE3)RIL E. coli

T2 sequence (P05067 672-713 limits assumed): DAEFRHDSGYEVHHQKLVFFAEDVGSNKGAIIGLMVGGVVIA
T1 sequence (P10636 560-692): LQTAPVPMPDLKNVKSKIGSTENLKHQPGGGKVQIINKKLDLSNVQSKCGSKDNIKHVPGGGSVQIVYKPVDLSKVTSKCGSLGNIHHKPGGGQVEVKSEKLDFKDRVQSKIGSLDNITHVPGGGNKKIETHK

SMILES: COc1ccc2c(c1)Sc1cc(N)ccc1N2C [Compound 13a, 7-methoxy-10-methyl-10H-phenothiazin-3-amine]
melting point: 141.6 to 142.9 °C

SMILES: Cc1ccc2c(c1)sc(-c1ccc(N(C)C)cc1)[n+]2C [ThT, Thioflavin T]
Bmax [5]: 5672 afu

SMILES: O=[N+]([O-])c1ccc2c(c1)Sc1ccccc1N2 [SIL3B, 3-nitro-10H-phenothiazine]
Ki [1]: 0.0523 µM
Ki [2]: 0.0715 µM

More lines, now with the values ahead:

Ki [1]: 0.173 µM
Ki [2]: 0.102 µM
SMILES: O=[N+]([O-])c1ccc2c(c1)Sc1cc(Br)ccc1N2 [SIL22, 3-bromo-7-nitro-10H-phenothiazine]

brain uptake (microPET) [3]: high uptake in the brain
washout kinetics from the brain (microPET) [3]: good washout kinetics
Biodistribution ([4]; blood, 5 min, male Sprague-Dawley rats): 0.506 ± 0.040 I.D. %/gram
Biodistribution ([4]; blood, 30 min, male Sprague-Dawley rats): 0.369 ± 0.031 I.D. %/gram
Biodistribution ([4]; blood, 60 min, male Sprague-Dawley rats): 0.300 ± 0.015 I.D. %/gram
brain uptake ([4]; 5 min post i.v. injection): 0.953±0.115 % I.D./g
brain uptake ([4]; 30 min post i.v. injection): 0.287±0.046 % I.D./g
brain uptake ([4]; 60 min post i.v. injection): 0.158±0.014 % I.D./g
Biodistribution ([4]; fat, 5 min, male Sprague-Dawley rats): 0.155 ± 0.023 I.D. %/gram
Biodistribution ([4]; fat, 30 min, male Sprague-Dawley rats): 0.241 ± 0.042 I.D. %/gram
Biodistribution ([4]; fat, 60 min, male Sprague-Dawley rats): 0.293 ± 0.076 I.D. %/gram
Biodistribution ([4]; heart, 5 min, male Sprague-Dawley rats): 0.758 ± 0.052 I.D. %/gram
Biodistribution ([4]; heart, 30 min, male Sprague-Dawley rats): 0.377 ± 0.046 I.D. %/gram
Biodistribution ([4]; heart, 60 min, male Sprague-Dawley rats): 0.245 ± 0.010 I.D. %/gram
Biodistribution ([4]; kidney, 30 min, male Sprague-Dawley rats): 0.807 ± 0.086 I.D. %/gram
Biodistribution ([4]; kidney, 60 min, male Sprague-Dawley rats): 0.559 ± 0.053 I.D. %/gram
Biodistribution ([4]; liver, 5 min, male Sprague-Dawley rats): 2.198±0.111 I.D. %/gram
Biodistribution ([4]; liver, 30 min, male Sprague-Dawley rats): 1.349 ± 0.116 I.D. %/gram
Biodistribution ([4]; liver, 60 min, male Sprague-Dawley rats): 1.116±0.024 I.D. %/gram
decrease of liver uptake ([4]; liver, from 5 min to 60 min): about 50%
Biodistribution ([4]; lung, 5 min, male Sprague-Dawley rats): 1.149 ± 0.058 I.D. %/gram
Biodistribution ([4]; lung, 30 min, male Sprague-Dawley rats): 0.740 ± 0.038 I.D. %/gram
Biodistribution ([4]; lung, 60 min, male Sprague-Dawley rats): 0.485 ± 0.036 I.D. %/gram
ability to cross the blood-brain-barrier (BBB) ([4]; male Sprague-Dawley rats, i.v.): able to cross BBB
Biodistribution ([4]; muscle, 5 min, male Sprague-Dawley rats): 0.271 ± 0.005 I.D. %/gram
Biodistribution ([4]; muscle, 30 min, male Sprague-Dawley rats): 0.325 ± 0.030 I.D. %/gram
Biodistribution ([4]; muscle, 60 min, male Sprague-Dawley rats): 0.199 ± 0.016 I.D. %/gram
Biodistribution ([4]; pancreas, 5 min, male Sprague-Dawley rats): 1.007 ± 0.262 I.D. %/gram
Biodistribution ([4]; pancreas, 30 min, male Sprague-Dawley rats): 0.506 ± 0.066 I.D. %/gram
Biodistribution ([4]; pancreas, 60 min, male Sprague-Dawley rats): 0.522 ± 0.036 I.D. %/gram
Biodistribution ([4]; spleen, 5 min, male Sprague-Dawley rats): 0.659 ± 0.049 I.D. %/gram
Biodistribution ([4]; spleen, 30 min, male Sprague-Dawley rats): 0.400 ± 0.052 I.D. %/gram
Biodistribution ([4]; spleen, 60 min, male Sprague-Dawley rats): 0.386 ± 0.027 I.D. %/gram
SMILES: COc1ccc2c(c1)Sc1cc([N+](=O)[O-])ccc1N2 [[^11C]SIL5]

From patent US20130315825A1, “TRICYCLIC HETEROAROMATIC COMPOUNDS AS ALPHA-SYNUCLEIN LIGANDS” (Washington University, priority 2012, published 2013)
